One series in a line: Water solubility. The class given is physicochemical. How it is done: Water solubility of adenine derivatives of the present invention and representative known cytokinin substances was measured and the results are shown in Table 7. […]
The subject of series [1] is pig weed (Amaranthus caudatus). The experiment in a line: Assay of cytokinin activity to promote synthesis of betacyanin by pig weed cotyledon sections. The note with it: 27°C, 20 hours, dark. The format is cell-based. How it is done: Two sheets of filter paper were put double in a plastic container (19 x 28 cm) and were wetted with 60 ml of distilled water. Seeds of pig weed were sown on the filter papers and were germinated by keeping them in the dark at 27°C for 3 days. Seedlings of uniform size were chosen and were cut at the upper part of the hypocotyl and the seed coats were removed. This cotyledon with hypocotyl of 3-4 mm in length was used for assay.
Two sheets of filter paper were put double in a glass tubular bottle 32 mm in inner diameter and 1 ml of 0.0065M potassium phosphate buffer solution (pH: 6.3) containing a given concentration of the candidate compound, benzyladenine or zeatin and 0.5 g/l of tyrosine was added therein and ten of the above cotyledon sections were arranged therein and kept at 27°C for 20 hours in the dark. These ten cotyledon sections were put in a test tube containing 3 ml of distilled water and betacyanin was extracted by repeating thrice freezing and thawing. Absorbance of the solution was measured and the amount of the dye was calculated by the difference between the absorbance at 542 nm and at 620 nm. For the untreated group, 0.0065M potassium phosphate buffer solution (pH: 6.3) containing 0.5 g/l of tyrosine was used.

Series [2] has as its system Rice seeds (var.: Nankin No. 11) leaf section. As to the kind of experiment: Assay of cytokinin activity by measurement of chlorophyll content (senescence retardation of rice leaf sections). The format is cell-based, Rice (var.: Nankin No. 11). The note with it: dark, 30°C, 3 days. As for the experimental part:
Rice seeds (var.: Nankin No. 11) were sown in soil mixed with fertilizer in a seed box and raised for about one month in a greenhouse (25°C in the daytime and 15°C in the night).
A leaf section 1 cm long was cut off from the center of the fourth leaf of the seedlings at the sixth leaf stage. Five leaf sections as one group which had been cut off were floated on the surface of an aqueous solution (2 ml) of the candidate compound or benzyl adenine at a given concentration contained in a glass tubular bottle of 32 mm in inner diameter. This was left to stand in the dark at 30°C for 3 days. The leaf sections were taken out and put in a test tube containing 10 ml of 80% ethanol and the glass tube was immersed in a water bath of 80°C for 20 minutes to extract chlorophyll. After cooling, 80% ethanol was added to make up to 10 ml and absorbance at 665 nm was measured. For the untreated group, water was used in place of the candidate solution in all examples.
Senescence retardation was determined according to the degree of chlorophyll retention, that is, calculated using the following formula (in all examples). [formula] • (A) : Absorbance of treated group after 3 days • (B) : Absorbance of untreated group after 3 days • (C) : Absorbance of leaves before treatment.

The subject of series [3] is glycine (soybean) hypocotyl section. As to the kind of experiment: Assay for cytokinin activity according to glycine (soybean) hypocotyl section growth test (callus weight). The class given is cell-based, Soybean (var.: Enrei). The note with it: Miller's medium with 2,4-D, dark, 30°C, about one month. As for the experimental part: Soybean seeds (var.: Enrei) were disinfected with antiformin containing 0.7% effective chlorine for 4 minutes and washed thrice with sterilized water.
Agar (15 ml, 1.6%) was put in a test tube 2.5 cm in diameter. A groove was cut by forceps on the surface of the agar and two soybean seeds treated as above were placed in this groove and kept in the dark at 30°C for 5 days.
In a glass tubular bottle 26 mm in inner diameter was put Miller's medium, to which a given concentration of the candidate compound, benzyladenine or zeatin and […] of 2,4-D were added. The central portion of hypocotyl budding out from the above seeds was cut off to give a section 1 mm thick. Four of the sections as one group were transplanted to the Miller's medium. This was placed in the dark at 30°C for about one month and then the weight of callus formed was measured. For untreated group, the Miller's medium containing 9 mg/l of 2,4-D was used.

The mark [4] stands for this setting: 20°C, read-out: Solubility (g/100 g H₂O) (20°C).

Structures are written as SMILES. Converted amounts (≈) assume the structure as drawn. Read-outs that look alike come from different tables or passages of the source.

Consider four molecules from EP0390515A1, “Novel adenine derivatives and their use as agents for increasing crop yields” (MITSUBISHI GAS CHEMICAL COMPANY, INC., priority 1989, dated 1990).

The molecule `c1coc(CNc2ncnc3[nH]cnc23)c1` [Kinetin, reference compound] yielded a solubility in the series “Water solubility” of 0.02 mg/mL (≈ 0.0929 mM).
Consider `CON(C)CCCCNc1ncnc2nc[nH]c12` [MABD, N⁶-[4-(N-methoxy-N-methylamino)butyl]adenine], for which the “The amount of betacyanin produced (difference between absorbance at 542 nm and 620 nm)” value is listed as 0.044 in series [1] (0.1 mg/l), 0.069 in series [1] (1.0 mg/l), 0.127 in series [1] (10 mg/l) and 0.207 in series [1] (100 mg/l). The “The senescence retardation (%)” value in series [2] (0.01 mg/l) came out at 1%; in series [2] (0.1 mg/l), 11%; in series [2] (1.0 mg/l), 21%; in series [2] (10 mg/l), 77%; in series [2] (100 mg/l) it was 87%. For the same molecule, the “The weight of soybean callus formed” value in series [3] (0.01 mg/l) came out at 51 mg; in series [3] (0.1 mg/l) it was 152 mg; in series [3] (1.0 mg/l), 178 mg; in series [3] (10 mg/l) it was 824 mg. Besides, the solubility in the series “Water solubility” (setting [4]) was 53 mg/mL (≈ 212 mM).
As to `CON(C)CCCNc1ncnc2nc[nH]c12` [MAPD, N⁶-[3-(N-methoxy-N-methylamino)propyl]adenine], the “The amount of betacyanin produced (difference between absorbance at 542 nm and 620 nm)” value in series [1] (0.1 mg/l) amounted to 0.065; in series [1] (1.0 mg/l), 0.132; in series [1] (10 mg/l), 0.227; in series [1] (100 mg/l), 0.236. The “The senescence retardation (%)” value came to 18% in series [2] (0.01 mg/l); 50% in series [2] (0.1 mg/l); 94% in series [2] (1.0 mg/l); 99% in series [2] (10 mg/l); 91% in series [2] (100 mg/l). Moreover, the “The weight of soybean callus formed” value in series [3] (0.01 mg/l) was 131 mg; in series [3] (0.1 mg/l), 143 mg; in series [3] (1.0 mg/l), 841 mg; in series [3] (10 mg/l), 677 mg. Also, the solubility in “Water solubility” (setting [4]) is 136 mg/mL (≈ 576 mM).
As for `C/C(=C\CNc1ncnc2[nH]cnc12)CO` [t-Zeatin, reference compound], the “The amount of betacyanin produced (difference between absorbance at 542 nm and 620 nm)” value was 0.040 in series [1] (0.001 mg/l), 0.062 in series [1] (0.01 mg/l), 0.198 in series [1] (0.1 mg/l) and 0.242 in series [1] (1.0 mg/l). Also, the “The weight of soybean callus formed” value in series [3] (0.001 mg/l) is on record as 52 mg; in series [3] (0.01 mg/l) it was 382 mg; in series [3] (0.1 mg/l) it was 815 mg; in series [3] (1.0 mg/l) it was 662 mg. In “Water solubility” (setting [4]), the solubility was 1.4 mg/mL (≈ 6.39 mM).
